Experimental data taken from patent publication US8097585B2, “Methods of treating inflammation by administration of heme oxygenase-1 and products of heme degradation” (priority 2002, dated 2012).
Counter-ions that a name gives are not always drawn.

Assays:
HO-1 = HO-1 protein expression in heart and spleen after CoPPIX (Western blot); type: in vivo, DBA/2 mice; conditions: CoPPIX 5 mg/kg i.p.
Protocol: Protein extraction and Western blot. DBA/2 mice were injected i.p. with CoPPIX at a dose of 5 mg/kg. Non-treated animals served as naïve controls. One, 2, 4, and 7 days following treatment, the heart and the spleen were excised from the animals, and samples were snap-frozen in liquid nitrogen. Protein extracts were prepared from the obtained tissues, electrophoresed under denaturing conditions (10% polyacrylamide gels) and transferred onto polyvinyldifluoridine membranes (Immobilon™ P, Millipore, Bedford, Mass.). HO-1 was detected using the rabbit anti-human HO-1 polyclonal antibody (Stress Gen Biotechnologies Corp., Victoria, Canada); α-actin was detected using the goat anti-mouse α-actin mAb (1A4, Sigma-Aldrich Corporation). Primary antibodies were detected using horseradish peroxidase conjugated donkey anti-rabbit or goat anti-mouse IgG secondary antibodies (Pierce, Rockford, Ill.). Protein was visualized using the Enhanced Chemi Luminescence (ECL™) Assay kit (Amersham Life Science Inc., Arlington Heights, Ill.), according to the manufacturer's instructions, and stored in the form of photo radiographs (Biomax™ MS, Eastman Kodak, Rochester, N.Y.). The amount of HO-1 expression was normalized with α-actin expression, and was quantified by using the ImageQuant™ software (Molecular Dynamics, Sunny Vale, Calif.).

COX-2 = assay: Real time RT-PCR of graft muscularis after SITx, COX-2; type: in vivo, LEW rats; conditions: BV treated rats
Protocol: Small Intestinal Transplantation. Orthotopic small intestinal transplantation (SITx) was performed in syngeneic Lewis rats. SITx with caval drainage was performed using a previously described procedure (Murase et al., in Handbook of Animal Models in Transplantation Research, Cramer et al., Eds. CRC Press, Boca Raton, Fla., pp. 203-213 (1994)). […] The graft was perfused via the aortic segment with 5 ml chilled Ringer's lactate solution, and the intestinal lumen was irrigated with 20 ml of cold saline solution containing 0.5% neomycin-sulfate (Sigma, St. Louis, Mo.). […]
SYBR green real time RT-PCR. The effects of administration of biliverdin on transplant-induced pro-inflammatory and anti-inflammatory gene expression were assessed in muscularis extracts by RT-PCR Biliverdin ([…], i.p.) was administered to both the donor and recipient three hours preoperatively. […] Equal aliquots (5 μg) of total RNA from each sample were quantified by spectrophotometry (wavelength […]) and aliquoted at a concentration of 40 ng/μl. Peak mRNA expression was quantified in duplicate by SYBR Green two-step, real-time RT-PCR. […] Real-time PCR data were plotted as the ΔRn fluorescence signal versus the cycle number. […] Quantification of mRNA expression was normalized to GAPDH and calculated relative to control using the comparative CT method (Schmittgen et al., J. Biochem. Biophys. Methods 46(1-2):69-8, 2000). […]

intestinal graft = assay: Graft permeability, everted gut sac method with FD4; type: in vivo, LEW rats; conditions: BV treated grafts
Protocol: Graft permeability. The preparation of everted gut sacs was performed in ice-cold modified Krebs-Henseleit bicarbonate buffer [KHBB (pH 7.4)] consisting of 10 mM HEPES, 137.0 mM NaCl, 5.36 mM KCl, 4.17 mM NaHCO3, 0.34 mM Na2HPO4, 0.44 mM KH2PO4, 0.41 mM MgSO47H2O, 0.49 mM MgCl26H20, 1.26 mM CaCl2, and 19.45 mM glucose. One end of the gut segment was ligated with 4-0 silk. The resulting gut sac was everted using a thin plastic rod. A groove was cut into the tip of a 5 ml plastic syringe and 1.5 mL of KHBB was drawn into the syringe. The open end of the everted gut sac was secured to the groove using 4-0 silk, and the intestine was gently distended by injecting the KHBB from the syringe. […] Following a 30 min incubation, the length of the sac was measured, and 1.0 mL of the fluid within the gut sac was collected. […] Subsequently, 300 ul of the supernatant was diluted with 3.0 mL of phosphate buffered saline, and the fluorescence of the solution was measured using a Perkin-Elmer LS-50 fluorescence spectrophotometer (Palo Alto, Calif.) at an excitation wave length of 492 nm (slit width=10.0 nm) and an emission wavelength of 515 nm (slit width=[…]).
Graft permeability. […] Graft permeability was determined by the everted gut sac method using 4 Kd Fluorescein isothiocyanate dextran.

Row | SMILES | HO-1 protein expression in the heart and spleen (HO-1) | time of maximal HO-1 expression after injection (HO-1) | reduction of mean relative COX-2 mRNA expression (COX-2) | inhibition of the increase of intestinal permeability (intestinal graft)
1 | C=CC1=C(C)c2cc3[n-]c(cc4nc(cc5[n-]c(cc1n2)c(C)c5CCC(=O)[O-])C(CCC(=O)[O-])=C4C)c(C)c3C=C.[Co+2].[H+].[H+] [CoPP, Cobalt protoporphyrin] | up-regulated | one |  | 
2 | C=CC1=C(C)/C(=C/C2=NC(=C\c3[nH]c(/C=C4\NC(=O)C(C)=C4C=C)c(C)c3CCC(=O)O)/C(CCC(=O)O)=C2C)NC1=O [biliverdin, biliverdin dihydrochloride] |  |  | approximately 50% | ~60%
